Results taken from paper PMC3863987 (Journal of medicinal chemistry, 2012).

B1: recombinant P. vivax NMT (Plasmodium vivax Sal-1) (protein)
chain: MNDDNKEFSGRDIYQLIKNAKDKIKIDYKFWYTQPVPKINDEFNESVNEPFISDNKVEDVRKDEYKLPPGYSWYVCDVKDEKDRSEIYTLLTDNYVEDDDNIFRFNYSAEFLLWALTSPNYLKTWHIGVKYDASNKLIGFISAIPTDICIHKRTIKMAEVNFLCVHKTLRSKRLAPVLIKEITRRINLENIWQAIYTAGVYLPKPVSDARYYHRSINVKKLIEIGFSSLNSRLTMSRAIKLYRVEDTLNIKNMRLMKKKDVEGVHKLLGSYLEQFNLYAVFTKEEIAHWFLPIENVIYTYVNEENGKIKDMISFYSLPSQILGNDKYSTLNAAYSFYNVTTTATFKQLMQDAILLAKRNNFDVFNALEVMQNKSVFEDLKFGEGDGSLKYYLYNWKCASFAPAHVGIVLL

Assays:
recombinant P. vivax NMT = biological target: T1, recombinant P. vivax NMT (Plasmodium vivax, UniProt A5K1A2); experiment: Fluorogenic NMT enzyme assay, P. vivax NMT; type: biochemical
T1 sequence (A5K1A2 1-410): B1 chain

Solubility = type: physicochemical; conditions: ethyl ester in position 3 in place of the aliphatic chain
[1] = substrate: C[C@H](NC(=O)[C@H](CC(=O)O)NC(=O)[C@H](CCCCN)NC(=O)[C@@H]1CCCN1C(=O)[C@H](CCCCN)NC(=O)[C@H](CO)NC(=O)[C@H](CCCCN)NC(=O)[C@H](CC(N)=O)NC(=O)[C@H](CO)NC(=O)CN)C(=O)N[C@@H](CO)C(=O)N[C@@H](CCC(N)=O)C(=O)N[C@@H](CCCNC(=N)N)C(=O)N[C@@H](CCCNC(=N)N)C(=O)N[C@@H](CCCNC(=N)N)C(N)=O; experiment: Fluorogenic NMT enzyme assay, P. vivax NMT; type: biochemical, Plasmodium vivax; conditions: other: peptide substrate for the PvNMT assay, in assay conditions

Molecule | inhibitory activity against PvNMT (in words) (recombinant P. vivax NMT) | also measured
CCCCc1c(C)nc2ccc(OC)cc2c1SCCC#N.Cl [Compound 1, 3-butyl-4-((2-cyanoethyl)thio)-6-methoxy-2-methyl-quinoline] | micromolar IC50 | –
CCOC(=O)c1cnc2ccc(OC)cc2c1SCCC#N [Compound 7] | – | solubility (in words) (Solubility): greatly improved solubility
CCOC(=O)c1c(C)nc2ccccc2c1NCC#N.Cl [Compound 17] | complete loss of activity | –
B1 | – | Km [1]: 5.71 ± 0.6 µM
